From ChEMBL document CHEMBL4118101 (Bioorg Med Chem, 2018)
Converted amounts (≈) assume the structure as drawn. The source made the active and inactive calls. No cut-off for these calls is given here.

Legend:
[1] = Hemolytic activity in mouse RBC at 62.5 ug/ml after 1 hr relative to control; type: ADME, cell-based, Erythrocyte; conditions: mouse red blood cells (erythrocytes), read-out: Activity
Cryptococcus neoformans [2] = test: Antifungal activity against Cryptococcus neoformans isolate CN2 measured after 48 hrs by CLSI M27-A3 protocol based method; type: functional; conditions: Cryptococcus neoformans, isolate CN2, 48 h; read-out: MIC
Candida albicans [3] = test: Antifungal activity against Candida albicans ATCC 10231 measured after 48 hrs by CLSI M27-A3 protocol based method; type: functional; conditions: ATCC 10231, 48 h
Candida albicans [4] = test: Antifungal activity against Candida albicans ATCC 64124 measured after 48 hrs by CLSI M27-A3 protocol based method; type: functional; conditions: Candida albicans, ATCC 64124, 48 h; read-out: MIC
Candida albicans [5] = test: Antifungal activity against fluconazole/ITC-susceptible Candida albicans ATCC MYA-2876 measured after 48 hrs by CLSI M27-A3 protocol based method; type: functional; conditions: Candida albicans, ATCC MYA-2876, 48 h
Candida albicans [6] = test: Antifungal activity against fluconazole/ITC-resistant Candida albicans ATCC 90819 measured after 48 hrs by CLSI M27-A3 protocol based method; type: functional; conditions: Candida albicans, ATCC 90819, 48 h; read-out: MIC
Candida albicans [7] = test: Antifungal activity against fluconazole/ITC-susceptible Candida albicans ATCC MYA-2310 measured after 48 hrs by CLSI M27-A3 protocol based method; type: functional; conditions: Candida albicans, ATCC MYA-2310, 48 h; read-out: MIC
Candida albicans [8] = test: Antifungal activity against fluconazole/ITC-resistant Candida albicans ATCC MYA-1237 measured after 48 hrs by CLSI M27-A3 protocol based method; type: functional; conditions: Candida albicans, ATCC MYA-1237, 48 h; read-out: MIC
Candida albicans [9] = test: Antifungal activity against fluconazole/ITC-resistant Candida albicans ATCC MYA-1003 measured after 48 hrs by CLSI M27-A3 protocol based method; type: functional; conditions: Candida albicans, ATCC MYA-1003, 48 h; read-out: MIC
Nakaseomyces glabratus [10] = test: Antifungal activity against Candida glabrata ATCC 2001 measured after 48 hrs by CLSI M27-A3 protocol based method; type: functional, CBS 138; conditions: Nakaseomyces glabratus, CBS 138, 48 h; read-out: MIC
Pichia kudriavzevii = test: Antifungal activity against Candida krusei ATCC 6258 measured after 48 hrs by CLSI M27-A3 protocol based method; type: functional; conditions: Pichia kudriavzevii, ATCC 6258, 48 h
Candida parapsilosis [11] = test: Antifungal activity against Candida parapsilosis ATCC 22019 measured after 48 hrs by CLSI M27-A3 protocol based method; type: functional; conditions: Lodderomyces parapsilosis, ATCC 22019, 48 h
Aspergillus nidulans [12] = test: Antifungal activity against Aspergillus nidulans ATCC 38163 measured after 48 hrs by CLSI M38-A2 protocol based method; type: functional; conditions: ATCC 38163, 48 h
Aspergillus flavus = test: Antifungal activity against Aspergillus flavus ATCC MYA-3631 measured after 48 hrs by CLSI M38-A2 protocol based method; type: functional; conditions: ATCC MYA-3631, 48 h
Aspergillus terreus = test: Antifungal activity against Aspergillus terreus ATCC MYA-3633 measured after 48 hrs by CLSI M38-A2 protocol based method; type: functional; conditions: ATCC MYA-3633, 48 h
Nakaseomyces glabratus [13] = test: Antifungal activity against Candida glabrata isolate CG1 measured after 48 hrs by CLSI M27-A3 protocol based method; type: functional; conditions: Nakaseomyces glabratus, 48 h; read-out: MIC
Nakaseomyces glabratus [14] = test: Antifungal activity against Candida glabrata isolate CG2 measured after 48 hrs by CLSI M27-A3 protocol based method; type: functional; conditions: Nakaseomyces glabratus, isolate CG2, 48 h; read-out: MIC
Nakaseomyces glabratus [15] = test: Antifungal activity against Candida glabrata isolate CG3 measured after 48 hrs by CLSI M27-A3 protocol based method; type: functional; conditions: Nakaseomyces glabratus, 48 h; read-out: MIC
Candida parapsilosis [16] = test: Antifungal activity against Candida parapsilosis isolate CP1 measured after 48 hrs by CLSI M27-A3 protocol based method; type: functional; conditions: Lodderomyces parapsilosis, isolate CP1, 48 h
Candida parapsilosis [17] = test: Antifungal activity against Candida parapsilosis isolate CP2 measured after 48 hrs by CLSI M27-A3 protocol based method; type: functional; conditions: Lodderomyces parapsilosis, isolate CP2, 48 h
Cryptococcus neoformans [18] = test: Antifungal activity against Cryptococcus neoformans isolate CN1 measured after 48 hrs by CLSI M27-A3 protocol based method; type: functional; conditions: isolate CN1, 48 h
Cryptococcus neoformans [19] = test: Antifungal activity against Cryptococcus neoformans isolate CN3 measured after 48 hrs by CLSI M27-A3 protocol based method; type: functional; conditions: Cryptococcus neoformans, isolate CN3, 48 h; read-out: MIC
Candida parapsilosis [20] = test: Antifungal activity against Candida parapsilosis isolate CP3 measured after 48 hrs by CLSI M27-A3 protocol based method; type: functional; conditions: Lodderomyces parapsilosis, isolate CP3, 48 h
Candida albicans [21] = test: Antifungal activity against Candida albicans ATCC 10231 measured after 48 hrs in presence of 10% FBS by CLSI M27-A3 protocol based method; type: functional; conditions: Candida albicans, ATCC 10231, 48 h
Candida parapsilosis [22] = test: Antifungal activity against Candida parapsilosis ATCC 22019 measured after 48 hrs in presence of 10% FBS by CLSI M27-A3 protocol based method; type: functional; conditions: Lodderomyces parapsilosis, ATCC 22019, 48 h
Aspergillus nidulans [23] = test: Antifungal activity against Aspergillus nidulans ATCC 38163 measured after 48 hrs in presence of 10% FBS by CLSI M38-A2 protocol based method; type: functional; conditions: ATCC 38163, 48 h
[24] = Hemolytic activity in mouse RBC at 0.48 ug/ml after 1 hr relative to control; type: ADME, cell-based, Erythrocyte; conditions: mouse red blood cells (erythrocytes), read-out: Activity
[25] = Hemolytic activity in mouse RBC at […] ug/ml after 1 hr relative to control; type: ADME, cell-based, Erythrocyte; conditions: mouse red blood cells (erythrocytes), read-out: Activity
[26] = Hemolytic activity in mouse RBC at 1.95 ug/ml after 1 hr relative to control; type: ADME, cell-based, Erythrocyte; conditions: mouse red blood cells (erythrocytes), at 1.95 µg/mL, read-out: Activity
[27] = Hemolytic activity in mouse RBC at 3.9 ug/ml after 1 hr relative to control; type: ADME, cell-based, Erythrocyte; conditions: mouse red blood cells (erythrocytes), read-out: Activity
[28] = Hemolytic activity in mouse RBC at 7.8 ug/ml after 1 hr relative to control; type: ADME, cell-based, Erythrocyte; conditions: mouse red blood cells (erythrocytes), read-out: Activity
[29] = Hemolytic activity in mouse RBC at 31.3 ug/ml after 1 hr relative to control; type: ADME, cell-based, Erythrocyte; conditions: mouse red blood cells (erythrocytes), at 31.3 µg/mL, read-out: Activity
[30] = Cytotoxicity against HEK293 cells assessed as cell survival at 3.9 ug/ml after 24 hrs by resazurin based assay relative to control; conditions: human, read-out: Survival
BEAS-2B = test: Cytotoxicity against human BEAS2B cells up to 7.8 ug/ml after 24 hrs by resazurin based assay; type: cell-based
A549 = test: Cytotoxicity against human A549 cells up to 7.8 ug/ml after 24 hrs by resazurin based assay; type: cell-based; conditions: a549, 24 h
Candida albicans [31] = test: Induction of membrane permeabilization in Candida albicans ATCC 10231 assessed as membrane disruption at 4 times MIC after 1 hr by propidium iodide staining based fluorescence microscopy; type: functional, organism-based
Candida albicans [32] = conditions: ATCC 10231, 0.975 ug/ml
Candida albicans [33] = conditions: ATCC 10231, 0.975 ug/ml; remark: listed apart in the source
Candida albicans [34] = conditions: ATCC 10231, 0.975 ug/ml; remark: listed apart in the source
Candida albicans [35] = conditions: ATCC 10231, 0.975 ug/ml; remark: listed apart in the source
HEK293 = test: Cytotoxicity against HEK293 cells at 7.8 ug/ml after 24 hrs by resazurin based assay; type: cell-based; conditions: human, hek293, 24 h

CCCCCCCCCCCCCCNCC(O)(Cn1cncn1)c1ccc(F)cc1F (centres undefined)
hemolysis at 1 h, 62.5 ug/ml [1]: 77% | MIC (Cryptococcus neoformans [2]): 0.53 µM (≈ 0.239 µg/mL) | MIC (Candida albicans [3]): 4.3 µM (≈ 1.94 µg/mL) | MIC (Candida albicans [4]): > 69.5 µM | MIC (Candida albicans [5]): > 69.5 µM | MIC (Candida albicans [6]): 17.3 µM (≈ 7.8 µg/mL) | MIC (Candida albicans [7]): 69.5 µM (≈ 31.3 µg/mL) | MIC (Candida albicans [8]): > 69.5 µM | MIC (Candida albicans [9]): 69.5 µM (≈ 31.3 µg/mL) | MIC (Nakaseomyces glabratus [10]): 2.2 to 4.3 µM (≈ 0.991 to 1.94 µg/mL) | MIC (Pichia kudriavzevii): 8.7 µM (≈ 3.92 µg/mL) | MIC (Candida parapsilosis [11]): 1.1 µM (≈ 0.496 µg/mL) | MIC (Aspergillus nidulans [12]): 8.7 µM (≈ 3.92 µg/mL) | MIC (Aspergillus flavus): > 69.5 µM | MIC (Aspergillus terreus): 17.3 µM (≈ 7.8 µg/mL) | MIC (Nakaseomyces glabratus [13]): 4.3 µM (≈ 1.94 µg/mL) | MIC (Nakaseomyces glabratus [14]): 4.3 µM (≈ 1.94 µg/mL) | MIC (Nakaseomyces glabratus [15]): 8.7 µM (≈ 3.92 µg/mL) | MIC (Candida parapsilosis [16]): 1.1 µM (≈ 0.496 µg/mL) | MIC (Candida parapsilosis [17]): 2.2 µM (≈ 0.991 µg/mL) | MIC (Cryptococcus neoformans [18]): 0.27 µM (≈ 0.122 µg/mL) | MIC (Cryptococcus neoformans [19]): 1.1 µM (≈ 0.496 µg/mL) | MIC (Candida parapsilosis [20]): 1.1 µM (≈ 0.496 µg/mL) | MIC (Candida albicans [21]): 7.8 µg/mL | MIC (Candida parapsilosis [22]): 0.975 µg/mL | MIC (Aspergillus nidulans [23]): 31.2 µg/mL | hemolysis at 1 h, 0.48 ug/ml [24]: 2% | hemolysis at 1 h, 0.975 ug/ml [25]: 6% | hemolysis at 1 h, 15.6 ug/ml [25]: 29% | hemolysis at 1 h, 1.95 ug/ml [26]: 3% | hemolysis at 1 h, 3.9 ug/ml [27]: 10% | hemolysis at 1 h, 7.8 ug/ml [28]: 17% | hemolysis at 1 h, 31.3 ug/ml [29]: < 50% | viability at 24 h, 3.9 ug/ml [30]: > 50% | Activity (BEAS-2B): Non-Toxic | Activity (A549): Non-Toxic | Activity (Candida albicans [31]): inactive | Activity (Candida albicans [32]): 36.4% | Activity (Candida albicans [33]): 15.6% | Activity (Candida albicans [34]): 1.16% | Activity (Candida albicans [35]): 8.33%

CCCCCCCCCCCCCCCCNCC(O)(Cn1cncn1)c1ccc(F)cc1F (centres undefined)
hemolysis at 1 h, 62.5 ug/ml [1]: 8% | MIC (Cryptococcus neoformans [2]): 1 µM (≈ 0.479 µg/mL) | MIC (Candida albicans [3]): > 65.4 µM | MIC (Candida albicans [4]): > 65.4 µM | MIC (Candida albicans [5]): 65.4 µM (≈ 31.3 µg/mL) | MIC (Candida albicans [6]): 65.4 µM (≈ 31.3 µg/mL) | MIC (Candida albicans [7]): 8.1 to 65.4 µM (≈ 3.88 to 31.3 µg/mL) | MIC (Candida albicans [8]): > 65.4 µM | MIC (Candida albicans [9]): > 65.4 µM | MIC (Nakaseomyces glabratus [10]): 2 to 65.4 µM (≈ 0.957 to 31.3 µg/mL) | MIC (Pichia kudriavzevii): 8.1 µM (≈ 3.88 µg/mL) | MIC (Candida parapsilosis [11]): 1 µM (≈ 0.479 µg/mL) | MIC (Aspergillus nidulans [12]): 8.1 µM (≈ 3.88 µg/mL) | MIC (Aspergillus flavus): > 65.4 µM | MIC (Aspergillus terreus): > 65.4 µM | MIC (Nakaseomyces glabratus [13]): 4.1 µM (≈ 1.96 µg/mL) | MIC (Nakaseomyces glabratus [14]): 2 µM (≈ 0.957 µg/mL) | MIC (Nakaseomyces glabratus [15]): 16.3 µM (≈ 7.8 µg/mL) | MIC (Candida parapsilosis [16]): 2 µM (≈ 0.957 µg/mL) | MIC (Candida parapsilosis [17]): 1 µM (≈ 0.479 µg/mL) | MIC (Cryptococcus neoformans [18]): 1 µM (≈ 0.479 µg/mL) | MIC (Cryptococcus neoformans [19]): 1 µM (≈ 0.479 µg/mL) | MIC (Candida parapsilosis [20]): 2 µM (≈ 0.957 µg/mL) | hemolysis at 1 h, 0.48 ug/ml [24]: 4% | hemolysis at 1 h, 0.975 ug/ml [25]: 5% | hemolysis at 1 h, 15.6 ug/ml [25]: 4% | hemolysis at 1 h, 1.95 ug/ml [26]: 6% | hemolysis at 1 h, 3.9 ug/ml [27]: 3% | hemolysis at 1 h, 7.8 ug/ml [28]: 4% | hemolysis at 1 h, 31.3 ug/ml [29]: 4% | Activity (HEK293): Non-Toxic | Activity (BEAS-2B): Non-Toxic | Activity (A549): Non-Toxic
